Data on 19 compounds can be found in ChEMBL document CHEMBL3244207, “Synthesis and antiallergic activity of 2-hydroxy-3-nitro-1,4-naphthoquinones” (1977).

Calls of active or inactive are those of the source. The calls are words filed in the database; no cut-off is given here.

The first assay deals with Rattus norvegicus. The assay can be described thus: Antiallergic activity in Wistar rat assessed as inhibition of passive cutaneous anaphylaxis up to 500 uM/kg, sc. Type of assay: functional, organism-based.
Consider `Cc1cccc2c1C(C)(C)C(=O)C([N+](=O)[O-])=C2O`, for which the inhibition result is “inactive”.
In the case of `CC1(C)C(=O)C([N+](=O)[O-])=C(O)c2ccccc21`, the inhibition result was “inactive”.
For the compound `Cc1ccc2c(c1)C(O)=C([N+](=O)[O-])C(=O)C2(C)C`, the inhibition entry was “inactive”.
For the compound `Cc1c(O)c([N+](=O)[O-])c(O)c2ccccc12`, the inhibition result is “inactive”.

The next assay relates to Rattus norvegicus. The assay can be described thus: Antiallergic activity in sc dosed Wistar rat assessed as inhibition of passive cutaneous anaphylaxis at Tmax. Type of assay: functional.
The ED50 is the midpoint of the dose-response relation. Turning to `Cc1ccc2c(c1)C(=O)C([N+](=O)[O-])=C(O)C2=O`, the ED50 was 63.9 µmol/kg.
For `O=C1C(O)=C([N+](=O)[O-])C(=O)c2cc3c(cc21)CCCC3`, the ED50 was found to be 7.3 µmol/kg.
With `Cc1cc2c(cc1C)C(=O)C([N+](=O)[O-])=C(O)C2=O`, the median effective dose (ED50) turned out to be 11 µmol/kg.
On the same count and under the same terms, to `O=C1C(O)=C([N+](=O)[O-])C(=O)c2ccc(F)cc21` belongs > 500 µmol/kg; to `O=C1C([N+](=O)[O-])=C(O)C(=O)c2c(O)cccc21`, > 500 µmol/kg; to `CCOc1ccc2c(c1)C(=O)C(O)=C([N+](=O)[O-])C2=O`, 68.2 µmol/kg.
Same read-out and setting: to `Cc1ccc2c(c1)C(=O)C(O)=C([N+](=O)[O-])C2=O` belongs 181 µmol/kg; to `CCc1cc2c(cc1CC)C(=O)C([N+](=O)[O-])=C(O)C2=O`, 27.3 µmol/kg.
On the same count and under the same terms, to `O=C1C(O)=C([N+](=O)[O-])C(=O)c2ccccc21` belongs 141 µmol/kg; to `COc1cc2c(cc1OC)C(=O)C([N+](=O)[O-])=C(O)C2=O`, 42.8 µmol/kg; to `Cc1cccc2c1C(=O)C(O)=C([N+](=O)[O-])C2=O`, 76.2 µmol/kg.
Consider `COc1ccc2c(c1)C(=O)C(O)=C([N+](=O)[O-])C2=O`, for which the ED50 amounted to 51.3 µmol/kg.
On the same count and under the same terms, the same measure for `O=C1C(O)=C([N+](=O)[O-])C(=O)c2ccc(Br)cc21`: > 500 µmol/kg; for `O=C1C(O)=C([N+](=O)[O-])C(=O)c2ccc(-c3ccccc3)cc21`: > 500 µmol/kg.
Turning to `O=C(O)c1cc(=O)c2c(OCC(O)COc3cccc4oc(C(=O)O)cc(=O)c34)cccc2o1` [CROMOLYN SODIUM], the ED50 amounted to 13.1 µmol/kg.

The next assay has as its system Rattus norvegicus. The assay can be described thus: Antiallergic activity in po dosed Wistar rat assessed as inhibition of passive cutaneous anaphylaxis administered 10 mins prior to antigen-challenge. Type of assay: functional.
On to `O=C1C(O)=C([N+](=O)[O-])C(=O)c2cc3c(cc21)CCCC3`, for which the ED50 stood at 100 µmol/kg.
For the compound `Cc1cc2c(cc1C)C(=O)C([N+](=O)[O-])=C(O)C2=O`, the ED50 was 100 µmol/kg.
